The subject of one test is TFEB. In words: TFEB nuclear translocation assay, HeLa wt cells. The test is classed as cell-based. Particulars: 2 hrs compound treatment, Table 1 does not say HeLa wt or TRPML1 KO. An outline of the steps:
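AC50 derived from the ratio of nuclear to perinuclear ring (−5 μm) anti-TFEB immunofluorescence, imaged at ×20 over four fields per well. HeLa wt or TRPML1 KO cells were exposed to compounds for 2 hrs at 37° C, then PFA-fixed and counterstained with Hoechst.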
For orientation: AC50 means the concentration giving half of the maximal activity seen. Lower therefore signals activity at low concentration. In the case of `CC(c1cccc(F)c1N1CCC(C)(C(F)F)CC1)S(=O)(=O)c1ccc(C(F)F)cc1` (single isomer, unassigned) [Compound A-964, 4-(difluoromethyl)-1-(2-(1-((4-(difluoromethyl)phenyl)sulfonyl)ethyl)-6-fluorophenyl)-4-methylpiperidine], the AC50 was no more than 2 µM.
For the molecule `CC(c1cccc(F)c1N1CCC(CN2C3CCC2COC3)CC1)S(=O)(=O)c1ccc(S(=O)(=O)N(C)C)cc1` (stereo not shown) [Compound A-839, 4-(1-{3-fluoro-2-[4-({3-oxa-8-azabicyclo[3.2.1]octan-8-yl}methyl)piperidin-1-yl]phenyl}ethanesulfonyl)-N,N-dimethylbenzene-1-sulfonamide], the AC50 is no more than 2 µM.

Still in this test, the particulars now being: Homo sapiens, HeLa, 2 h, 2 hrs compound treatment, Table 1 does not say HeLa wt or TRPML1 KO.
As to `CN(C)S(=O)(=O)c1ccc(S(=O)(=O)Nc2ccccc2N2CCC3(CCCO3)CC2)cc1` [Compound A-584, N1,N1-dimethyl-N4-(2-{1-oxa-8-azaspiro[4.5]decan-8-yl}phenyl)benzene-1,4-disulfonamide], the AC50 was no more than 2 µM.
Regarding `CN(C)C(=O)c1ccc(S(=O)(=O)Nc2ccccc2N2CCC(c3ccc(Cl)cc3F)CC2)cc1` [Compound A-44, 4-({2-[4-(4-chloro-2-fluorophenyl)piperidin-1-yl]phenyl}sulfamoyl)-N,N-dimethylbenzamide], the AC50 is no more than 2 µM.
Turning to `COCC1(C)CCN(c2ccccc2NS(=O)(=O)Cc2ccc(S(=O)(=O)COC)cc2)CC1` [Compound A-747, 1-(4-methoxymethanesulfonylphenyl)-N-{2-[4-(methoxymethyl)-4-methylpiperidin-1-yl]phenyl}methanesulfonamide], the AC50 was no less than 10 µM.
On the same count and under the same terms, in the case of `CCS(=O)(=O)c1ccc(S(=O)(=O)Nc2ccccc2N2CCC(c3c(F)cccc3F)CC2)cc1` [Compound A-198, N-{2-[4-(2,6-difluorophenyl)piperidin-1-yl]phenyl}-4-(ethanesulfonyl)benzene-1-sulfonamide] it was no more than 2 µM; in that of `COCC1(C)CCN(c2ccccc2NS(=O)(=O)c2ccc(S(=O)(=O)N(C)C)cc2)CC1` [Compound A-438, N4-{2-[4-(methoxymethyl)-4-methylpiperidin-1-yl]phenyl}-N1,N1-dimethylbenzene-1,4-disulfonamide], no more than 2 µM; in that of `CN(C)S(=O)(=O)c1ccc(S(=O)(=O)Nc2ccccc2N2CCN(C(=O)C3(CF)CCC3)CC2)cc1` [Compound A-430, N4-(2-{4-[1-(fluoromethyl)cyclobutanecarbonyl]piperazin-1-yl}phenyl)-N1,N1-dimethylbenzene-1,4-disulfonamide], 2.01 to 8 µM.
On the same count and under the same terms, in the case of `CN(C)S(=O)(=O)c1ccc(S(=O)(=O)Nc2cccc(C#N)c2N2CCC3(CC2)COC(C)(C)C3)cc1` [Compound A-724, N4-(3-cyano-2-{3,3-dimethyl-2-oxa-8-azaspiro[4.5]decan-8-yl}phenyl)-N1,N1-dimethylbenzene-1,4-disulfonamide] it was no more than 2 µM; in that of `N#Cc1cccc(S(=O)(=O)Nc2ccccc2N2CCN(c3ccc(Cl)cc3F)CC2)c1` [Compound A-5, N-{2-[4-(4-chloro-2-fluorophenyl)piperazin-1-yl]phenyl}-3-cyanobenzene-1-sulfonamide], 2.01 to 8 µM; in that of `COCC1(C)CCN(c2ccccc2NS(=O)(=O)c2ccc(OC(F)(F)F)cc2)CC1` [Compound A-622, N-{2-[4-(methoxymethyl)-4-methylpiperidin-1-yl]phenyl}-4-(trifluoromethoxy)benzene-1-sulfonamide], 2.01 to 8 µM.
In the case of `CC1(C)CC2(CCN(c3ccccc3NS(=O)(=O)c3cnn(C4CCC4)c3)CC2)CO1` [Compound A-666, 1-cyclobutyl-N-(2-{3,3-dimethyl-2-oxa-8-azaspiro[4.5]decan-8-yl}phenyl)-1H-pyrazole-4-sulfonamide], the AC50 was 2.01 to 8 µM.
In the case of `CC1(C)CC2(CCN(c3ccccc3NS(=O)(=O)c3ccc4c(c3)CC(C)(C)O4)CC2)CO1` [Compound A-635, N-(2-{3,3-dimethyl-2-oxa-8-azaspiro[4.5]decan-8-yl}phenyl)-2,2-dimethyl-2,3-dihydro-1-benzofuran-5-sulfonamide], the AC50 fell in the range of 2.01 to 8 µM.
`CN(C)S(=O)(=O)c1ccc(S(=O)(=O)Nc2cccc(F)c2N2CCC(CN3C4CCC3COC4)CC2)cc1` [Compound A-790, N4-{3-fluoro-2-[4-({3-oxa-8-azabicyclo[3.2.1]octan-8-yl}methyl)piperidin-1-yl]phenyl}-N1,N1-dimethylbenzene-1,4-disulfonamide] yielded an AC50 of no more than 2 µM.
In turn, `CS(=O)(=O)c1ccc(S(=O)(=O)Nc2cc(F)ccc2N2CCC(c3c(F)cccc3F)CC2)cc1` [Compound A-154, N-{2-[4-(2,6-difluorophenyl)piperidin-1-yl]-5-fluorophenyl}-4-methanesulfonylbenzene-1-sulfonamide] had an AC50 of no more than 2 µM.
In turn, `CC(c1cccc(C#N)c1N1CCC(CN2C[C@@H](C)O[C@@H](C)C2)CC1)S(=O)(=O)c1ccc(S(=O)(=O)N(C)C)cc1` (single isomer, unassigned) [Compound A-845, 4-((1-(3-cyano-2-(4-((2,6-dimethylmorpholino)methyl)piperidin-1-yl)phenyl)ethyl)sulfonyl)-N,N-dimethylbenzenesulfonamide] displayed an AC50 of 2.01 to 8 µM.
With `COCC1(C)CCN(c2ccccc2NS(=O)(=O)c2ccc(S(C)(=O)=O)cc2)CC1` [Compound A-697, 4-methanesulfonyl-N-{2-[4-(methoxymethyl)-4-methylpiperidin-1-yl]phenyl}benzene-1-sulfonamide], the AC50 is 2.01 to 8 µM.
The molecule `CN(C)S(=O)(=O)c1ccc(S(=O)(=O)Nc2ccccc2N2CCOCC2)cc1` [Compound A-770, N1,N1-dimethyl-N4-[2-(morpholin-4-yl)phenyl]benzene-1,4-disulfonamide] came in with an AC50 of no less than 10 µM.
In the case of `C[C@@H]1CN(CC2CCN(c3c(NS(=O)(=O)c4ccc(S(=O)(=O)N(C)C)cc4)cccc3C(F)F)CC2)C[C@H](C)O1` [Compound A-831, N4-[3-(difluoromethyl)-2-(4-{[(2R,6S)-2,6-dimethylmorpholin-4-yl]methyl}piperidin-1-yl)phenyl]-N1,N1-dimethylbenzene-1,4-disulfonamide], the AC50 is no more than 2 µM.
The molecule `CN(C)S(=O)(=O)c1ccc(S(=O)(=O)Nc2ccccc2N2CCC(C(=O)N3CCOCC3)CC2)cc1` [Compound A-761, N1,N1-dimethyl-N4-{2-[4-(morpholine-4-carbonyl)piperidin-1-yl]phenyl}benzene-1,4-disulfonamide] showed an AC50 of no less than 10 µM.
Molecule `C[C@@H]1CN(CC2CCN(c3c(F)cccc3NS(=O)(=O)c3ccc(S(=O)(=O)N4CCC4)cc3)CC2)C[C@H](C)O1` [Compound A-765, 4-(azetidine-1-sulfonyl)-N-[2-(4-{[(2R,6S)-2,6-dimethylmorpholin-4-yl]methyl}piperidin-1-yl)-3-fluorophenyl]benzene-1-sulfonamide] yielded an AC50 of no more than 2 µM.
Still for that read-out and setting: in the case of `CNC(=O)c1cccc(NS(=O)(=O)c2ccc(S(=O)(=O)N(C)C)cc2)c1N1CCCCC1` [Compound A-809, 3-[4-(dimethylsulfamoyl)benzenesulfonamido]-N-methyl-2-(piperidin-1-yl)benzamide] it was no less than 10 µM.
Regarding `CN(C)S(=O)(=O)c1ccc(S(=O)(=O)Nc2cccc(Cl)c2N2CCCCC2)cc1` [Compound A-652, N4-[3-chloro-2-(piperidin-1-yl)phenyl]-N1,N1-dimethylbenzene-1,4-disulfonamide], the AC50 was no more than 2 µM.
Take `COC1(C(=O)N2CCN(c3ccccc3NS(=O)(=O)c3ccc(S(=O)(=O)N(C)C)cc3)CC2)CCCCC1` [Compound A-445, N4-{2-[4-(1-methoxycyclohexanecarbonyl)piperazin-1-yl]phenyl}-N1,N1-dimethylbenzene-1,4-disulfonamide]: the AC50 is no more than 2 µM.
`CN(C)S(=O)(=O)c1ccc(S(=O)(=O)N(C)c2ccc(F)cc2N2CCC3(CC2)COC(C)(C)C3)cc1` [Compound A-729, N1-(2-{3,3-dimethyl-2-oxa-8-azaspiro[4.5]decan-8-yl}-4-fluorophenyl)-N1,N4,N4-trimethylbenzene-1,4-disulfonamide] came in with an AC50 of 2.01 to 8 µM.
`CN(C)S(=O)(=O)c1ccc(S(=O)(=O)Nc2ccccc2N2CCN(C(=O)C(C)(C)F)CC2)cc1` [Compound A-432, N4-{2-[4-(2-fluoro-2-methylpropanoyl)piperazin-1-yl]phenyl}-N1,N1-dimethylbenzene-1,4-disulfonamide] showed an AC50 of 2.01 to 8 µM.
Regarding `CN1CC2CN(c3ccccc3NS(=O)(=O)c3ccc(S(=O)(=O)N(C)C)cc3)CC2C1` (stereo not shown) [Compound A-58, N1,N1-dimethyl-N4-(2-{5-methyl-octahydropyrrolo[3,4-c]pyrrol-2-yl}phenyl)benzene-1,4-disulfonamide], the AC50 was no less than 10 µM.
The molecule `COc1ccc(S(=O)(=O)Nc2ccccc2N2CCC(Cc3ccc(F)cc3F)C2)cc1` (stereo not shown) [Compound A-197, N-(2-{3-[(2,4-difluorophenyl)methyl]pyrrolidin-1-yl}phenyl)-4-methoxybenzene-1-sulfonamide] displayed a half-maximal activity concentration (AC50) of no less than 10 µM.
Regarding `C[C@@H]1CN(CC2CCN(c3c(F)cccc3NS(=O)(=O)c3ccc(S(C)(=O)=O)cc3)CC2)C[C@H](C)O1` [Compound A-776, N-[2-(4-{[(2R,6S)-2,6-dimethylmorpholin-4-yl]methyl}piperidin-1-yl)-3-fluorophenyl]-4-methanesulfonylbenzene-1-sulfonamide], the AC50 was no more than 2 µM.
The molecule `CN(C)S(=O)(=O)c1ccc([S+]([O-])c2ccccc2N2CCC(c3ccc(Cl)cc3F)CC2)cc1` (stereo not shown) [Compound A-181, 4-((2-(4-(4-chloro-2-fluorophenyl)piperidin-1-yl)phenyl)sulfinyl)-N,N-dimethylbenzenesulfonamide] came in with an AC50 of 2.01 to 8 µM.
`CC1(C)CC2(CCN(c3ccccc3NS(=O)(=O)c3cccc(C4CC4)c3)CC2)CO1` [Compound A-669, 3-cyclopropyl-N-(2-{3,3-dimethyl-2-oxa-8-azaspiro[4.5]decan-8-yl}phenyl)benzene-1-sulfonamide] returned an AC50 of no more than 2 µM.

Source of the values: US20230104936A1, “TRPML MODULATORS” (Casma Therapeutics, Inc., priority 2019, published 2023).
